Results published in ChEMBL document CHEMBL3044664, “Synthesis of coumarin-based 1,3,4-oxadiazol-2ylthio-N-phenyl/benzothiazolyl acetamides as antimicrobial and antituberculosis agents” (2013).
≈ marks a conversion by molar mass, not a printed value.

What was measured:
Format in all cases: functional
[1] = tested on: Proteus vulgaris; assay: Antibacterial activity against Proteus vulgaris MTCC 1771 assessed as growth inhibition by agar streak dilution method
[2] = tested on: Aspergillus clavatus; assay: Antifungal activity against Aspergillus clavatus MTCC 1323 assessed as growth inhibition by agar streak dilution method
[3] = tested on: Escherichia coli; assay: Antibacterial activity against Escherichia coli MTCC 739 assessed as growth inhibition by agar streak dilution method
[4] = tested on: Bacillus cereus; assay: Antibacterial activity against Bacillus cereus MTCC 430 assessed as growth inhibition by agar streak dilution method
[5] = tested on: Mycobacterium tuberculosis; assay: Antitubercular activity against Mycobacterium tuberculosis H37Rv assessed as growth inhibition by Lowenstein-Jensen method
[6] = tested on: Salmonella typhi; assay: Antibacterial activity against Salmonella enterica subsp. enterica serovar Typhi MTCC 733 assessed as growth inhibition by agar streak dilution method
[7] = tested on: Candida albicans; assay: Antifungal activity against Candida albicans MTCC 183 assessed as growth inhibition by agar streak dilution method
[8] = tested on: Pseudomonas aeruginosa; assay: Antibacterial activity against Pseudomonas aeruginosa MTCC 741 assessed as growth inhibition by agar streak dilution method
[9] = tested on: Aspergillus niger; assay: Antifungal activity against Aspergillus niger MTCC 282 assessed as growth inhibition by agar streak dilution method
[10] = tested on: Mycobacterium tuberculosis; assay: Antitubercular activity against Mycobacterium tuberculosis H37Rv assessed as growth inhibition by BACTEC MGIT method
[11] = tested on: Aspergillus fumigatus; assay: Antifungal activity against Aspergillus fumigatus MTCC 343 assessed as growth inhibition by agar streak dilution method
[12] = tested on: Mycobacterium tuberculosis; assay: Antitubercular activity against Mycobacterium tuberculosis H37Rv assessed as growth inhibition at MIC by Lowenstein-Jensen method
[13] = tested on: Klebsiella pneumoniae; assay: Antibacterial activity against Klebsiella pneumoniae MTCC 109 assessed as growth inhibition by agar streak dilution method
[14] = tested on: Shigella flexneri; assay: Antibacterial activity against Shigella flexneri MTCC 1457 assessed as growth inhibition by agar streak dilution method
[15] = tested on: Staphylococcus aureus; assay: Antibacterial activity against Staphylococcus aureus MTCC 96 assessed as growth inhibition by agar streak dilution method

| SMILES | MIC [1] | MIC [2] | MIC [3] | MIC [4] | MIC [5] | MIC [6] | MIC [7] | MIC [8] | MIC [9] | MIC [10] | MIC [11] | growth inhibition (GI) [12] | MIC [13] | MIC [14] | MIC [15] |
| --- | --- | --- | --- | --- | --- | --- | --- | --- | --- | --- | --- | --- | --- | --- | --- |
| O=C(CSc1nnc(-c2cc3ccccc3oc2=O)o1)Nc1nc2ccc(F)cc2s1 | 100 µg/mL (≈ 220 µM) | 50 µg/mL (≈ 110 µM) | 50 µg/mL (≈ 110 µM) | 12.5 µg/mL (≈ 27.5 µM) | 50 µg/mL (≈ 110 µM) | 50 µg/mL (≈ 110 µM) | 50 µg/mL (≈ 110 µM) | 50 µg/mL (≈ 110 µM) | 12.5 µg/mL (≈ 27.5 µM) | > 6.25 µg/mL | 25 µg/mL (≈ 55 µM) | 98% | 100 µg/mL (≈ 220 µM) | 25 µg/mL (≈ 55 µM) | 12.5 µg/mL (≈ 27.5 µM) |
| O=C(CSc1nnc(-c2cc3ccccc3oc2=O)o1)Nc1nc2ccc(I)cc2s1 | > 100 µg/mL | 100 µg/mL (≈ 178 µM) | 50 µg/mL (≈ 88.9 µM) | 100 µg/mL (≈ 178 µM) | 100 µg/mL (≈ 178 µM) | 100 µg/mL (≈ 178 µM) | 100 µg/mL (≈ 178 µM) | > 100 µg/mL | 100 µg/mL (≈ 178 µM) | > 6.25 µg/mL | 100 µg/mL (≈ 178 µM) | 97% | 100 µg/mL (≈ 178 µM) | 100 µg/mL (≈ 178 µM) | 100 µg/mL (≈ 178 µM) |
| O=C(CSc1nnc(-c2cc3ccccc3oc2=O)o1)Nc1nc2ccc([N+](=O)[O-])cc2s1 | 12.5 µg/mL (≈ 26 µM) | 100 µg/mL (≈ 208 µM) | 100 µg/mL (≈ 208 µM) | 100 µg/mL (≈ 208 µM) | 250 µg/mL (≈ 519 µM) | 100 µg/mL (≈ 208 µM) | 50 µg/mL (≈ 104 µM) | 100 µg/mL (≈ 208 µM) | 50 µg/mL (≈ 104 µM) | > 6.25 µg/mL | 100 µg/mL (≈ 208 µM) | 96% | 50 µg/mL (≈ 104 µM) | 100 µg/mL (≈ 208 µM) | 50 µg/mL (≈ 104 µM) |
| N#Cc1ccc2nc(NC(=O)CSc3nnc(-c4cc5ccccc5oc4=O)o3)sc2c1 | 100 µg/mL (≈ 217 µM) | 100 µg/mL (≈ 217 µM) | 50 µg/mL (≈ 108 µM) | 100 µg/mL (≈ 217 µM) | 100 µg/mL (≈ 217 µM) | 100 µg/mL (≈ 217 µM) | 50 µg/mL (≈ 108 µM) | > 100 µg/mL | 100 µg/mL (≈ 217 µM) | > 6.25 µg/mL | > 100 µg/mL | 98% | 25 µg/mL (≈ 54.2 µM) | > 100 µg/mL | 25 µg/mL (≈ 54.2 µM) |
| Cc1ccc2nc(NC(=O)CSc3nnc(-c4cc5ccccc5oc4=O)o3)sc2c1 | 100 µg/mL (≈ 222 µM) | 100 µg/mL (≈ 222 µM) | > 100 µg/mL | 100 µg/mL (≈ 222 µM) | 200 µg/mL (≈ 444 µM) | 100 µg/mL (≈ 222 µM) | 100 µg/mL (≈ 222 µM) | 100 µg/mL (≈ 222 µM) | > 100 µg/mL | > 6.25 µg/mL | > 100 µg/mL | 95% | 100 µg/mL (≈ 222 µM) | > 100 µg/mL | 100 µg/mL (≈ 222 µM) |
| COc1ccc2nc(NC(=O)CSc3nnc(-c4cc5ccccc5oc4=O)o3)sc2c1 | 25 µg/mL (≈ 53.6 µM) | 25 µg/mL (≈ 53.6 µM) | 100 µg/mL (≈ 214 µM) | 50 µg/mL (≈ 107 µM) | 25 µg/mL (≈ 53.6 µM) | 25 µg/mL (≈ 53.6 µM) | 50 µg/mL (≈ 107 µM) | 50 µg/mL (≈ 107 µM) | 50 µg/mL (≈ 107 µM) | > 6.25 µg/mL | 100 µg/mL (≈ 214 µM) | 98% | 100 µg/mL (≈ 214 µM) | 50 µg/mL (≈ 107 µM) | 25 µg/mL (≈ 53.6 µM) |
| CCOc1ccc2nc(NC(=O)CSc3nnc(-c4cc5ccccc5oc4=O)o3)sc2c1 | 100 µg/mL (≈ 208 µM) | 50 µg/mL (≈ 104 µM) | 50 µg/mL (≈ 104 µM) | 25 µg/mL (≈ 52 µM) | 50 µg/mL (≈ 104 µM) | 12.5 µg/mL (≈ 26 µM) | 100 µg/mL (≈ 208 µM) | 6.25 µg/mL (≈ 13 µM) | 100 µg/mL (≈ 208 µM) | > 6.25 µg/mL | 100 µg/mL (≈ 208 µM) | 97% | 100 µg/mL (≈ 208 µM) | 100 µg/mL (≈ 208 µM) | 12.5 µg/mL (≈ 26 µM) |
| CC(=O)Nc1ccc2nc(NC(=O)CSc3nnc(-c4cc5ccccc5oc4=O)o3)sc2c1 | > 100 µg/mL | 12.5 µg/mL (≈ 25.3 µM) | 100 µg/mL (≈ 203 µM) | 100 µg/mL (≈ 203 µM) | 100 µg/mL (≈ 203 µM) | 100 µg/mL (≈ 203 µM) | > 100 µg/mL | 12.5 µg/mL (≈ 25.3 µM) | 100 µg/mL (≈ 203 µM) | > 6.25 µg/mL | > 100 µg/mL | 96% | 100 µg/mL (≈ 203 µM) | 100 µg/mL (≈ 203 µM) | 50 µg/mL (≈ 101 µM) |
| O=C(O)c1cn(C2CC2)c2cc(N3CCNCC3)c(F)cc2c1=O [CIPROFLOXACIN] | 0.39 µg/mL (≈ 1.18 µM) | – | – | 0.39 µg/mL (≈ 1.18 µM) | – | 0.39 µg/mL (≈ 1.18 µM) | – | 0.78 µg/mL (≈ 2.35 µM) | – | – | – | – | 0.78 µg/mL (≈ 2.35 µM) | 1.56 µg/mL (≈ 4.71 µM) | 1.56 µg/mL (≈ 4.71 µM) |
| CC(=O)N1CCN(c2ccc(OCC3COC(Cn4ccnc4)(c4ccc(Cl)cc4Cl)O3)cc2)CC1 (stereo unspecified) [KETOCONAZOLE] | – | 0.78 µg/mL (≈ 1.47 µM) | – | – | – | – | 1.56 µg/mL (≈ 2.94 µM) | – | 1.56 µg/mL (≈ 2.94 µM) | – | 0.78 µg/mL (≈ 1.47 µM) | – | – | – | – |
